Test results as given in patent US12115157B2, “3-phenoxyazetidin-1-yl-heteroaryl pyrrolidine derivatives and the use thereof as medicament” (Boehringer Ingelheim International GmbH, priority 2021, dated 2024).

How the values were obtained:
hERG channel = hERG channel (Homo sapiens (Human), UniProt Q12809); assay: hERG channel assay (whole-cell patch clamp); type: cell-based; details: HEK293 cells stably transfected with hERG cDNA
From the text: hERG Channel inhibition of compounds of the present invention was investigated as follows:
HEK (human embryonic kidney) 293 cells were stably transfected with hERG cDNA. Cells determined for use in patch clamp experiments were cultivated without antibiotic.
Cells were superfused with a bath solution containing (mM): NaCl (137), KCl (4.0), MgCl2 (1.0), CaCl2(1.8), Glucose (10), HEPES (10), pH 7.4 with NaOH. Patch pipettes were made from borosilicate glass tubing using a pipette and filled with pipette solution containing (mM): K-aspartate (130), MgCl2(5.0), EGTA (5.0), K2ATP (4.0), HEPES (10.0), pH 7.2 with KOH. Resistance of the microelectrodes was typically in the range between 2 MΩ and 5 MΩ.
Membrane currents were recorded using an EPC-10 patch clamp amplifier (HEKA Electronics, Lambrecht, FRG) and PatchMaster software (HEKA). hERG-mediated membrane currents were recorded at typically 28° C., using the whole-cell configuration of the patch-clamp technique. Transfected HEK293 cells were clamped at a holding potential of −60 mV and hERG-mediated inactivating tail currents were elicited using a pulse pattern with fixed amplitudes (activation/inactivation: 40 mV for 2000 ms; recovery: 120 mV for 2 ms; ramp to 40 mV in 2 ms; inactivating tail current: 40 mV for 50 ms) repeated at 15 s intervals. During each inter-pulse interval 4 pulses scaled down by a factor of 0.2 were recorded for a P/n leak subtraction procedure. Rs compensation was employed up to a level that safely allows recording devoid of ringing. The remaining uncompensated Rs was recorded as well as actual temperature and holding current.
The concentrations of the test item were applied sequentially on each of the different cells investigated. A steady state level of baseline current was measured for at least 5 sweeps prior to the application of the first test article concentration. The test item was dissolved in DMSO to yield a stock solution of 1000-fold the highest final concentration. This stock was diluted further in DMSO to stock solutions of 1000-fold the remaining final concentrations. Final dilutions in extracellular buffer were prepared freshly from these stocks by a 1:1000 dilution step each before starting the experiments.
Peak current amplitudes were measured 3 ms after the ramp to +40 mV. For baseline and each concentration, the peak currents of the three last sweeps before application of the next concentration were averaged. Residual currents (I/I0) were calculated for each cell as the fraction of actual average peak current and average baseline peak current. Current inhibition was expressed as […]. Current inhibition for all cells was reported as mean ±SD. If possible, from mean current inhibition data the IC50 was estimated based on the Hill equation using a least squares procedure.

[1] = test system: primary human hepatocytes; assay: In vitro metabolite profiling in primary human hepatocytes with or without proadifen; type: in vitro ADME; details: for % Parent of drug-related material: incubations in primary human hepatocytes, 1 μM test compound; for Contribution of amide hydrolysis to metabolism (incl. secondary metabolites): primary human hepatocytes, abundance of deacetylated metabolites relative to all metabolites
Experimental: In vitro metabolite profiling to evaluate the involvement of non-CYP-enzyme-mediated metabolic pathways such as hydrolysis in addition to CYP-mediated pathways is based on the semiquantitative analysis of the formation of prototypic metabolites in incubations with liver microsomes (with and without beta-nicotinamide adenine dinucleotide phosphate, NADPH), primary human hepatocytes (with and without the pan-CYP inhibitor proadifen) and recombinant CYP enzymes.
An additional measure to identify CYP-independent metabolic pathways is the use of the pan-CYP inhibitor proadifen in incubations of the test compound with human hepatocytes. In presence of proadifen, the CYP-related pathways are inhibited and metabolites would primarily be generated via non-CYP pathways.
The involvement of non-CYP-enzymes in metabolic transformations of the test compound was further investigated using primary human hepatocytes in suspension in presence or absence of the pan-CYP inhibitor proadifen (50 μM final incubation concentration). After recovery from cryopreservation, human hepatocytes were incubated in Dulbecco's modified eagle medium supplemented with 3.5 μg glucagon/500 ml, 2.5 mg insulin/500 ml and 3.75 mg/500 ml hydrocortisone containing 5% (v/v) human serum.
Following a 30 min preincubation in a cell culture incubator (37° C., 10% CO2) with or without 50 μM proadifen, test compound solution was spiked into the hepatocyte suspension to obtain a final cell density of 1.0*10^6 to 4.0*10^6 cells/ml (depending on the metabolic turnover rate of the compound observed with primary human hepatocytes), a final test compound concentration of 1 μM, and a final DMSO concentration of 0.05% (v/v).
The cells were incubated for six hours (incubator, horizontal shaker) and samples were removed from the incubation after 0, 0.5, 1, 2, 4 or 6 hours, depending on the metabolic turnover rate. Samples were quenched with acetonitrile and pelleted by centrifugation. The supernatant was transferred to a 96-deepwell plate, evaporated under nitrogen, and resuspended prior to bioanalysis by liquid chromatography-high resolution mass spectrometry for identification of putative metabolites.
The contribution of hydrolysis was calculated based on the abundance of the respective deacetylated metabolite(s) of the compounds of the present invention relative to all metabolites observed in incubations with human hepatocytes.

human plasma proteins = assay: Human plasma protein binding assay (equilibrium dialysis); type: in vitro ADME; details: 1 μM, 2 hours, 37° C.
Experimental: Equilibrium dialysis (ED) technique was used to determine the approximate in vitro fractional binding of test compounds to plasma proteins. Dianorm Teflon dialysis cells (micro 0.2) were used. Each dialysis cell consists of a donor and an acceptor chamber, separated by an ultrathin semipermeable membrane with a 5 kDa molecular weight cut-off. Stock solutions for each test compound were prepared in DMSO at 1 mM and serially diluted to obtain a final test concentration of 1 μM. The subsequent dialysis solutions were prepared in plasma (supplemented with NaEDTA as anticoagulant), and aliquots of 200 μL test compound dialysis solution in plasma were dispensed into the donor (plasma) chambers. Aliquots of 200 μL dialysis buffer (100 mM potassium phosphate, pH 7.4) were dispensed into the buffer (acceptor) chamber. Incubation was carried out for 2 hours under rotation at 37° C. for establishing equilibrium.
At the end of the dialysis period, aliquots obtained from donor and acceptor chambers, respectively, were transferred into reaction tubes, spiked with Internal Standard solution and processed for HPLC-MS/MS analysis. Analyte concentrations were quantified in aliquots of samples by HPLC-MS/MS against external calibration curves.
Percent bound was calculated using the formula: % bound=(plasma concentration−buffer concentration/plasma concentration)×100

human hepatocytes = assay: Metabolic stability in human hepatocytes; type: in vitro ADME; details: human hepatocyte suspension, 1 μM; predicted hepatic clearance as percentage of hepatic blood flow
Experimental: The metabolic degradation of a test compound was assayed in a human hepatocyte suspension. After recovery from cryopreservation, human hepatocytes were diluted in Dulbecco's modified eagle medium (supplemented with 3.5 μg glucagon/500 mL, 2.5 mg insulin/500 mL, 3.75 mg hydrocortisone/500 mL, 5% human serum) to obtain a final cell density of 1.0×10^6 cells/mL or 4.0×10^6 cells/mL, depending on the metabolic turnover rate of the test compound.
Following a 30 minutes preincubation in a cell culture incubator (37° C., 10% CO2), test compound solution was spiked into the hepatocyte suspension, resulting in a final test compound concentration of 1 μM and a final DMSO concentration of 0.05% (v/v).
The cell suspension was incubated at 37° C. (cell culture incubator, horizontal shaker) and samples were removed from the incubation after 0, 0.5, 1, 2, 4 and 6 hours. Samples were quenched with acetonitrile (containing internal standard) and pelleted by centrifugation. The supernatant was transferred to a 96-deepwell plate, and prepared for analysis of decline of parent compound by HPLC-MS/MS.
The percentage of remaining test compound was calculated using the peak area ratio (test compound/internal standard) of each incubation time point relative to the time point 0 peak area ratio. The log-transformed data were plotted versus incubation time, and the absolute value of the slope obtained by linear regression analysis was used to estimate in vitro half-life (T1/2).
In vitro intrinsic clearance (CLint) was calculated from in vitro T1/2 and scaled to whole liver using a hepatocellularity of 120×10^6 cells/g liver, a human liver per body weight of 25.7 g liver/kg as well as in vitro incubation parameters, applying the following equation: CL_[…]_IN VIVO[mL/min/kg]=(CL_[…][μL/min/10^6 cells]×hepatocellularity[10^6 cells/g liver]×liver factor[g/kg body weight])/1000
Hepatic in vivo blood clearance (CL) was predicted according to the well-stirred liver model considering an average liver blood flow (QH) of 20.7 mL/min/kg: CL[mL/min/kg]=CL_[…]_IN VIVO[mL/min/kg]×hepatic blood flow[mL/min/kg]/(CL_[…]_IN VIVO[mL/min/kg]+hepatic blood flow[mL/min/kg])
Results were expressed as percentage of hepatic blood flow: QH[%]=CL[mL/min/kg]/hepatic blood flow[mL/min/kg])

Sequence of hERG channel (Q12809 whole entry): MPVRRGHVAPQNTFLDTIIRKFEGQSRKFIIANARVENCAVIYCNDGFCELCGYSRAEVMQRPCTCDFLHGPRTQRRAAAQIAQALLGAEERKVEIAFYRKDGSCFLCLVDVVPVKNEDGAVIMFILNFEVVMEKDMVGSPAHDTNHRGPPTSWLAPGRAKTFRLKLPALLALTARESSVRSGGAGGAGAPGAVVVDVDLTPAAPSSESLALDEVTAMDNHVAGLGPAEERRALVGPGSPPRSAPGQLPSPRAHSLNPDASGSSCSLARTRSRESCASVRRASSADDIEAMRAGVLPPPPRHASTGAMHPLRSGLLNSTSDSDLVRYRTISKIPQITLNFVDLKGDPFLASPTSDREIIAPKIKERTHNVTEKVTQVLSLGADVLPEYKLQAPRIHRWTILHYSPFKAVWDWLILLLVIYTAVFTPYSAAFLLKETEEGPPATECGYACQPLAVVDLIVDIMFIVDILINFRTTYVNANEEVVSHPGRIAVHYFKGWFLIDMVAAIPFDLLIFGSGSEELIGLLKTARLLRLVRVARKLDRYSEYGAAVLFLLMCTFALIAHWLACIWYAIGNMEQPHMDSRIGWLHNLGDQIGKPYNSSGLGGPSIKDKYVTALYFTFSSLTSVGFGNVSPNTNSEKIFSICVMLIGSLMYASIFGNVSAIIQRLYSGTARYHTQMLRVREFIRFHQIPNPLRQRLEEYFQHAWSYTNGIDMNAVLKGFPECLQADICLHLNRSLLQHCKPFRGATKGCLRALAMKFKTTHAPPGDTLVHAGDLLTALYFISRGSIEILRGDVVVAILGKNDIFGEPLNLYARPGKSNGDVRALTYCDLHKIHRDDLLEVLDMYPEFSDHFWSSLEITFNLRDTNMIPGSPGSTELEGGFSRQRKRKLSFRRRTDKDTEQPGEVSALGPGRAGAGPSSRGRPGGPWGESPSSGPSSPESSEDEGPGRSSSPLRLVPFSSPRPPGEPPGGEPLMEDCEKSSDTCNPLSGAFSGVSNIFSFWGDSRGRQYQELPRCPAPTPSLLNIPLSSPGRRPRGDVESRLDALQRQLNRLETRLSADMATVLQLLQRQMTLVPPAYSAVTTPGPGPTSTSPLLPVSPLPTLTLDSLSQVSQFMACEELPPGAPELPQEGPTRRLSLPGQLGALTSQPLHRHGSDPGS

| Structure (SMILES) | IC50 (hERG channel) | % Parent of drug-related material [1] | Contribution of amide hydrolysis to metabolism (incl. secondary metabolites) [1] | Hu PPB (human plasma proteins) | Human HepStab (human hepatocytes) |
| --- | --- | --- | --- | --- | --- |
| CC(=O)N1C[C@H](NC(=O)c2nccnc2N2CC(Oc3ccc(F)c(F)c3)C2)C(F)(F)C1 [Example 8b] | > 10 µM | 84% | 19% | 79.7 % bound | 9.2 % QH |
| CC(=O)N1C[C@H](NC(=O)c2nsnc2N2CC(Oc3ccc(F)c(F)c3)C2)C(F)(F)C1 [Example 13b] | > 10 µM | 70% | 25% | 92.8 % bound | <4.1 % QH |
